The source of these data is patent US9732061B2, “Cinnoline derivatives useful as CB-1 receptor inverse agonists” (Janssen Pharmaceutica NV, priority 2015, dated 2017).

Test [1] concerns the target Human CB1R (Cannabanoid receptor 1) (Homo sapiens (Human), UniProt P21554). The test is described as follows: CB-1 in vitro cAMP (HTRF) assay. Type of test: cell-based. The conditions noted are these: HEK-293 cells stably transfected with human CB1R, 250 nM Forskolin, mean where tested more than once. From the text: (§1) CB1 and CB2 receptors are Gi-coupled GPCR. Activation of CB1 and CB2 receptors results in a decrease in cAMP production. An inverse agonist of the CB1 or CB2 receptor results in the opposite effect, an increase of cAMP production. The principle of this assay is based on HTRF® technology (Homogeneous Time-Resolved Fluorescence). The method is a competitive immunoassay between native cAMP produced by cells and the cAMP labeled with the fluorophore d2. The tracer binding is quantified by a Mab anti-cAMP labeled with Eu3+TBP-NHS Cryptate (supplied as part of the assay kit). The specific signal (i.e. energy transfer) is inversely proportional to the concentration of cAMP in the standard or sample.
(§2) Biological Example 1: CB-1 and CB-2 In Vitro Assay
(§3) Human CB1R (Cannabanoid receptor 1) was stably transfected in HEK-293 cells (DiscoveRx, cat: 93-0200C1). Human CB2R (Cannabanoid receptor 2) was stably transfected in HEK-293 cells (DiscoveRx, cat: 93-0201C1). Cell cultures were maintained in media: DMEM (Invitrogen Cat#12430-054) supplemented with 10% HI FBS (Invitrogen Cat#16140-071), 1% L-glutamine (Invitrogen Cat#25030-081), 0.2 mg/ml Hygromycin B (Invitrogen Cat#10687-010), 600 μg/mL G418 (Invitrogen Cat#10131-035), and 1×Penn/Strep (Invitrogen 15140-122). After cell expansion, aliquots were cryo-stored in media containing 5% DMSO (Pierce Cat#20684).
(§4) One day prior to experiments media was warmed to 37° C. and the cryo-stored cells were thawed in a 37° C. water bath. The cells were then added to media (10× volume) and the mixture was centrifugated at 1000 RPM for 5 min. The supernate was removed and the cells were re-suspended in media. A sample of the cell suspension was evaluated on a Cedex XS automated cell counter (Innovatis Systems) to determine viable cells/ml. Additional media was added to the cells to achieve a final cell density of 4E5 cells/mL. The cells were then plated into 384 well PDL white solid bottom plates (Greiner, Cat#781945) at 20 μL per well using a Multidrop (Thermo Scientific). Cells were removed from Row P (location of cAMP standards). Two columns of cells were plated into a clear bottom 384 well PDL coated plate (Greiner, Cat#781944) to view confluence the day of the assay. The cell plates were lidded and stored for 15 minutes in a hood, then transferred to an incubator (37° C., 5% CO2, 95% humidity) overnight.
(§5) DMSO was added to all wells of 384 well V bottom polystyrene plate (Greiner, Cat#781280) except to columns 1 and 13, rows O and P and wells M13-M23 and N13-N23. Test compounds (60 μL, 10 mM) were added to Column 1 and 13 (A1 through N1 and A13 through L13). Test compounds were serially diluted 1/3 by transferring and mixing 20 μl sample with 40 μL DMSO.
(§6) DMSO (40 μL) was added to wells of 384 well V bottom polystyrene plate: O2 through O11, M14 through M23, N14 through N23, and O14 through O23. AM630 (also known as [6-iodo-2-methyl-1-[2-(4-morpholinyl)ethyl]-1H-indol-3-yl](4-methoxyphenyl)-methanone, Cayman Chemical, Cat#10006974) (60 μL, 10 mM) was added to O1; and 1-(2,4-dichlorophenyl)-7-[(4-fluorophenyl)methylene]-4,5,6,7-tetrahydro-N-1-piperidinyl-1H-indazole-3-carboxamide (60 μL, 10 mM) was added to N13. The control was serially diluted 1/3 by transferring and mixing 20 μl sample with 40 μL DMSO. This process resulted 11 doses per control, 10 mM to […].
(§7) Cells plated the day prior to the assay in clear bottom plates were viewed on an inverse microscope to ensure confluency in the range of 60-75%. […]
(In general: Time-resolved FRET reads energy transfer from a long-lived donor to a nearby acceptor.)

For test [2], the target named is Human CB2R (Cannabanoid receptor 2) (Homo sapiens (Human), UniProt P34972). The test can be described thus: CB-2 in vitro cAMP (HTRF) assay. Format: cell-based. Conditions: HEK-293 cells stably transfected with human CB2R, 250 nM Forskolin, mean where tested more than once.
Chain of Human CB2R (Cannabanoid receptor 2) (P34972 whole entry): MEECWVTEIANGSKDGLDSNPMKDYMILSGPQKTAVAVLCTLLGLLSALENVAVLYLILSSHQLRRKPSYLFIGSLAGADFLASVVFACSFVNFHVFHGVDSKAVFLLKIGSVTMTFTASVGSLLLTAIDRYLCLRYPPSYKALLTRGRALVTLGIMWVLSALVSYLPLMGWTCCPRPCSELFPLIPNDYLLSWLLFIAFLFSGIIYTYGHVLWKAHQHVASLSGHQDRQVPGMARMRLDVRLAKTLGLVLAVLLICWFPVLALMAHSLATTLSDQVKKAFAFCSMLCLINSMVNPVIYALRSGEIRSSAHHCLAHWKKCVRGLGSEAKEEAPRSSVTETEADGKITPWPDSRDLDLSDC
Text: as §1, §2, §3, §4, §5, §6, §7

Each structure is given as a SMILES string.

Chain of Human CB1R (Cannabanoid receptor 1) (P21554 whole entry): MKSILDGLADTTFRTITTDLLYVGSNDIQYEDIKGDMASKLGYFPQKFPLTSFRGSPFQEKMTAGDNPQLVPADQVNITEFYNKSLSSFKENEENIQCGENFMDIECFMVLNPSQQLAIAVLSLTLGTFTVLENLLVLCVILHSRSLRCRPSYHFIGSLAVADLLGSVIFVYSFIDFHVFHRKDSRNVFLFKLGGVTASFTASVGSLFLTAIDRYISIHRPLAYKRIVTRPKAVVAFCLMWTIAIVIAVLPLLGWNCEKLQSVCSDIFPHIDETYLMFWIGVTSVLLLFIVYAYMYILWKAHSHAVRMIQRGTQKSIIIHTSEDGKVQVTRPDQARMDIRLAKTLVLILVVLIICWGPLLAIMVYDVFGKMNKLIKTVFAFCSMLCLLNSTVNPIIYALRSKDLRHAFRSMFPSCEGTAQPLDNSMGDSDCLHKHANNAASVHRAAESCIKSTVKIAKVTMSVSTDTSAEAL

What is called EC50 is the concentration giving half of the maximal effect. Read a low EC50 as higher potency in that assay. Turning to `Clc1ccc(C(c2ccc(Cl)cc2)c2ccc3nncc(NC4CCN(Cc5ccccc5)C4)c3c2)cc1` (centres unmarked) [Compound 28, N-(1-benzylpyrrolidin-3-yl)-6-(bis(4-chlorophenyl)methyl)cinnolin-4-amine], the figures for the concentration giving a half-maximal response (EC50) in test [1] and in test [2] were 1.69 µM and > 10 µM, respectively.
As to `O=C(O)c1ccccc1S(=O)(=O)N1CCC(Nc2cnnc3ccc(C(c4ccc(Cl)cc4)c4ccc(Cl)cc4)cc23)CC1` [Compound 19, 2-(4-(6-(bis(4-chlorophenyl)methyl)cinnolin-4-ylamino)piperidin-1-ylsulfonyl)benzoic acid], the concentration giving a half-maximal response (EC50) in test [1] was 5.94 µM; in test [2], > 10 µM.
With `O=C(O)c1cccc(CN2CCC(Nc3cnnc4ccc(C(c5ccc(Cl)cc5)c5ccc(Cl)cc5)cc34)CC2)c1` [Compound 12, 3-[[4-([6-[bis(4-chlorophenyl)methyl]cinnolin-4-yl]amino)piperidin-1-yl]methyl]benzoic acid], the EC50 in test [1] was 0.302 µM; in test [2] it was 6.5 µM.
As for `FC(F)(F)c1ccc(CNc2cnnc3ccc(C(c4ccc(Cl)cc4)c4ccc(Cl)cc4)cc23)cc1` [Compound 9, 6-(bis(4-chlorophenyl)methyl)-N-(4-(trifluoromethyl)benzyl)cinnolin-4-amine], the concentration for a half-maximal effect (EC50) is 0.04 µM in test [1] and > 10 µM in test [2].
